Patent US7008905B2, “Method of combating undesired plant growth on cereals” (BASF Aktiengesellschaft, priority 2000, dated 2006)

Legend:
Format in all cases: in vivo
[1] = system: Triticum aestivum variety “Monopol”; assay: Pre-emergence test, selectivity; conditions: 3 weeks after treatment, rating 0-100 (100=death), Table 4
Method: (§1) The pre-emergence tests involve spraying a liquid formulation of the compound onto the soil in which the seeds of the plant species mentioned above has recently been sown.
(§2) The soil used in the tests is a prepared horticultural loam. The formulations used in the tests are prepared from solutions of the test compounds in acetone containing 0.4% by weight of an alkylphenol/ethylene oxide condensate available under the trade mark TRITON X-155.
(§3) These acetone solutions are diluted with water and the resulting formulations applied at dosage levels corresponding to 15 g, 30 g, 60 g, 120 g or 240 g of active material per hectare in a volume equivalent to 900 liters per hectare. In these tests untreated sown soil is used as control. The herbicidal effects of the test compounds are assessed visually three weeks after spraying the soil and are recorded an a 0 to 100 scale. A rating 0 indicates growth as untreated control, a rating 100 indicates death. An increase of 10 unit an the linear scale approximates to a 10% increase in the level of effect. The results of the assessment are set out in Tables 1 to 4.

[2] = system: Triticum aestivum variety “Kanzler”; assay: Pre-emergence test, selectivity; conditions: 3 weeks after treatment, rating 0-100 (100=death), Table 4
Method: as §1, §2, §3

[3] = system: Veronica persica; assay: Pre-emergence test, weed control; conditions: 3 weeks after treatment, rating 0-100 (100=death), Table 3
Method: as §1, §2
(§4) In these tests untreated sown soil is used as control. The herbicidal effects of the test compounds are assessed visually three weeks after spraying the soil and are recorded an a 0 to 100 scale. A rating 0 indicates growth as untreated control, a rating 100 indicates death. An increase of 10 unit an the linear scale approximates to a 10% increase in the level of effect. The results of the assessment are set out in Tables 1 to 4.

[4] = system: Lamium purpureum; assay: Pre-emergence test, weed control; conditions: 3 weeks after treatment, rating 0-100 (100=death), Table 3
Method: as §1, §2, §4

[5] = system: Poa annua; assay: Pre-emergence test, weed control; conditions: 3 weeks after treatment, rating 0-100 (100=death), Table 3
Method: as §1, §2, §4

[6] = system: Alopecurus myosuroides; assay: Pre-emergence test, weed control; conditions: 3 weeks after treatment, rating 0-100 (100=death), Table 3
Method: as §1, §2, §4

[7] = system: Matricaria inodora; assay: Pre-emergence test, weed control; conditions: 3 weeks after treatment, rating 0-100 (100=death), Table 3
Method: as §1, §2, §4

[8] = system: Apera spica-venti; assay: Pre-emergence test, weed control; conditions: 3 weeks after treatment, rating 0-100 (100=death), Table 3
Method: as §1, §2, §4

[9] = system: Lolium perenne; assay: Pre-emergence test, weed control; conditions: 3 weeks after treatment, rating 0-100 (100=death), Table 3
Method: as §1, §2, §4

[10] = system: Galium aparine; assay: Pre-emergence test, weed control; conditions: 3 weeks after treatment, rating 0-100 (100=death), Table 3
Method: as §1, §2, §4

[11] = system: Stellaria media; assay: Pre-emergence test, weed control; conditions: 3 weeks after treatment, rating 0-100 (100=death), Table 3
Method: as §1, §2, §4

[12] = system: Setaria viridis; assay: Pre-emergence test, weed control; conditions: 3 weeks after treatment, rating 0-100 (100=death), Table 3
Method: as §1, §2, §4

[13] = system: grasses and broadleaf weeds; assay: Pre-emergence test, overall weed control
Method: as §1, §2, §3

[14] = system: VIOAR; assay: Pre-emergence test, weed control; conditions: 3 weeks after treatment, rating 0-100 (100=death), Table 3
Method: as §1, §2, §3

[15] = system: PAPRH; assay: Pre-emergence test, weed control; conditions: 3 weeks after treatment, rating 0-100 (100=death), Table 3
Method: as §1, §2, §3

[16] = system: wheat; assay: Pre-emergence test, tolerance in wheat; conditions: pre-emergence
Method: as §1, §2, §3

SMILES: FC(F)(F)c1ccc(-c2nccc(Oc3ccnc(Cl)c3)n2)cc1 [CTP, 4-(2-chloropyrid-4-yloxy)-2-(4-trifluoromethyl-phenyl)pyrimidine]
- TRZAWM rating (Selectivity) ([1]; 0.060 kg/ha): 1
- TRZAWM rating (Selectivity) ([1]; 0.120 kg/ha): 2
- TRZAWM rating (Selectivity) ([1]; 0.240 kg/ha): 5
- TRZAWK rating (Selectivity) ([2]; 0.120 kg/ha): 1
- TRZAWK rating (Selectivity) ([2]; 0.240 kg/ha): 5
- VERPE weed control rating ([3]; 0.030 kg/ha): 100
- VERPE weed control rating ([3]; 0.060 kg/ha): 100
- VERPE weed control rating ([3]; 0.120 kg/ha): 100
- VERPE weed control rating ([3]; 0.240 kg/ha): 100
- LAMPU weed control rating ([4]; 0.030 kg/ha): 90
- LAMPU weed control rating ([4]; 0.060 kg/ha): 100
- LAMPU weed control rating ([4]; 0.120 kg/ha): 100
- LAMPU weed control rating ([4]; 0.240 kg/ha): 100
- POAAN weed control rating ([5]; 0.030 kg/ha): 100
- POAAN weed control rating ([5]; 0.060 kg/ha): 100
- POAAN weed control rating ([5]; 0.120 kg/ha): 100
- POAAN weed control rating ([5]; 0.240 kg/ha): 100
- ALOMY weed control rating ([6]; 0.030 kg/ha): 15
- ALOMY weed control rating ([6]; 0.060 kg/ha): 35
- ALOMY weed control rating ([6]; 0.120 kg/ha): 99
- ALOMY weed control rating ([6]; 0.240 kg/ha): 100
- MATIN weed control rating ([7]; 0.030 kg/ha): 98
- MATIN weed control rating ([7]; 0.060 kg/ha): 99
- MATIN weed control rating ([7]; 0.120 kg/ha): 99
- MATIN weed control rating ([7]; 0.240 kg/ha): 100
- APESV weed control rating ([8]; 0.030 kg/ha): 100
- APESV weed control rating ([8]; 0.060 kg/ha): 100
- APESV weed control rating ([8]; 0.120 kg/ha): 100
- APESV weed control rating ([8]; 0.240 kg/ha): 100
- LOLPE weed control rating ([9]; 0.030 kg/ha): 93
- LOLPE weed control rating ([9]; 0.060 kg/ha): 95
- LOLPE weed control rating ([9]; 0.120 kg/ha): 98
- LOLPE weed control rating ([9]; 0.240 kg/ha): 100
- GALAP weed control rating ([10]; 0.030 kg/ha): 10
- GALAP weed control rating ([10]; 0.060 kg/ha): 65
- GALAP weed control rating ([10]; 0.120 kg/ha): 93
- GALAP weed control rating ([10]; 0.240 kg/ha): 95
- STEME weed control rating ([11]; 0.030 kg/ha): 80
- STEME weed control rating ([11]; 0.060 kg/ha): 100
- STEME weed control rating ([11]; 0.120 kg/ha): 100
- STEME weed control rating ([11]; 0.240 kg/ha): 100
- SETVI weed control rating ([12]; 0.030 kg/ha): 98
- SETVI weed control rating ([12]; 0.060 kg/ha): 100
- SETVI weed control rating ([12]; 0.120 kg/ha): 100
- SETVI weed control rating ([12]; 0.240 kg/ha): 100
- dose at which complete control of all the grasses and broadleaf weeds was achieved [13]: 120 g/ha
- VIOAR weed control rating ([14]; 0.030 kg/ha): 99
- VIOAR weed control rating ([14]; 0.060 kg/ha): 100
- VIOAR weed control rating ([14]; 0.120 kg/ha): 100
- VIOAR weed control rating ([14]; 0.240 kg/ha): 100
- PAPRH weed control rating ([15]; 0.030 kg/ha): 100
- PAPRH weed control rating ([15]; 0.060 kg/ha): 100
- PAPRH weed control rating ([15]; 0.120 kg/ha): 100
- PAPRH weed control rating ([15]; 0.240 kg/ha): 100
- maximum tolerated dose in wheat / dose at which sufficiently selective in wheat [16]: 240 g/ha
